In publication PMC8482815, “Targeting Host Glycolysis as a Strategy for Antimalarial Development” (Frontiers in Cellular and Infection Microbiology, 2021):
Values joined by “and” are separate entries in the source; they are usually repeats but may differ in a detail not shown here. Equal values may be shown once.

Tested on: human erythrocytes
Assay: Untargeted metabolomics and 13C-glucose tracing of enolase inhibitor treated erythrocytes
Assay type: cell-based
Details: 6h
Experimental: Freshly collected erythrocytes were washed, resuspended to 10% hematocrit in buffer [25mM HEPES (pH 7.4), 120mM NaCl, 5.4mM KCl, 1.8mM CaCl2, and 1mM NaH2PO4], incubated for 1 hour at 37°C, then centrifuged at 2000xg for 5 minutes at 4°C, resuspended in fresh wash buffer to 30-40% hematocrit, and split into 210µL aliquots of packed erythrocytes. […] All samples were incubated at 37°C shaking at 500 RPM. Triplicate samples of supernatants and packed erythrocytes were collected at 0, 0.5, 1, and 6-hour intervals and snap-frozen in liquid N2.
RBC and media samples were extracted at 1:10 and 1:20 dilutions, respectively, in 5:3:2 MeOH : MeCN:H2O v/v/v, and supernatants analyzed on a Thermo Vanquish UHPLC coupled to a Thermo Q Exactive mass spectrometer, as extensively described ([Nemkov et al., 2015]; [Nemkov et al., 2017]). The extraction buffer was supplemented with 40uM 3-^13C lactate to allow absolute quantification of lactate isotopologues, including lactate generated via glycolysis ([1,2,3-^13C3] enriched) vs. the pentose phosphate pathway ([2,3-^13C2] enriched), as described ([Reisz et al., 2016]). Metabolite assignments, peak area integration and isotopologues distributions were determined using Maven (Princeton University) ([Nemkov et al., 2015]; [Nemkov et al., 2017]).
Data were auto-scaled and normalized to zero-hour time points. Metabolites were removed from the dataset if greater than 50% of the samples contained missing values or the relative standard deviation among replicates exceeded 25%. Additionally, data was filtered using the interquartile range to reduce near-constant values from the experiment by 5%.
A principal component analysis of preprocessed data was plotted with the 95% confidence interval minimum volume enclosing ellipsoid for each respective group (MetaboAnalyst, cluster, plotly). A two-way repeated measures analysis of variance (ANOVA) was performed with multiple comparisons corrected for using a false discovery rate p-value cutoff of 0.05. Metabolite-Pathway analysis was performed using the R package of MetaboAnalyst, as previously described ([Xia and Wishart, 2010]). Metabolite-Protein nodal analysis was performed using omicsnet.ca and as previously described ([Zhou and Xia, 2018]).

[1] = treated erythrocytes, one value per replicate sample, polarity +
[2] = treated erythrocytes, one value per replicate sample, polarity -
[3] = treated erythrocytes, replicate samples

CC(C)(C)C(=O)OCOP(=O)(OCOC(=O)C(C)(C)C)C1CCCN(O)C1=O (stereo not shown) [POMHEX]
AMP level (metabolomics signal) (replicate samples): 3.72E+05 and 4.97E+05 and 4.88E+05
ATP level (metabolomics signal) (replicate samples): 1.06E+05 and 4.51E+04 and 2.86E+04
Adenine level (metabolomics signal) (replicate samples): 1.10E+05 and 1.13E+05 and 1.03E+05
Cytosine level (metabolomics signal) (replicate samples): 0.00E+00
L-alanine level (metabolomics signal) (replicate samples): 7.74E+06 and 6.77E+06 and 7.99E+06
L-arginine level (metabolomics signal) (replicate samples): 4.96E+06 and 6.71E+06 and 3.72E+06
L-asparagine level (metabolomics signal) (replicate samples): 5.50E+06 and 5.88E+06 and 6.25E+06
L-aspartate level (metabolomics signal) (replicate samples): 1.08E+07 and 1.19E+07 and 1.12E+07
L-cysteine level (metabolomics signal) (replicate samples): 4.98E+05 and 5.97E+05 and 1.05E+06
L-glutamate level (metabolomics signal) (replicate samples): 5.99E+06 and 6.14E+06 and 6.66E+06
L-glutamine level (metabolomics signal) (replicate samples): 6.37E+07 and 6.26E+07 and 6.35E+07
L-histidine level (metabolomics signal) (replicate samples): 1.60E+06 and 1.47E+06 and 1.87E+06
L-isoleucine level (metabolomics signal) (replicate samples): 1.28E+07 and 1.42E+07 and 1.14E+07
L-leucine level (metabolomics signal) (replicate samples): 1.47E+08 (2×) and 1.27E+08
L-lysine level (metabolomics signal) (replicate samples): 1.47E+06 and 1.24E+06 and 1.45E+06
L-methionine level (metabolomics signal) (replicate samples): 1.56E+07 and 1.66E+07 and 1.27E+07
L-phenylalanine level (metabolomics signal) (replicate samples): 7.06E+06 and 6.50E+06 and 4.97E+06
L-proline level (metabolomics signal) (replicate samples): 6.39E+07 and 5.46E+07 and 5.96E+07
L-serine level (metabolomics signal) (replicate samples): 4.50E+06 and 4.60E+06 and 4.86E+06
L-threonine level (metabolomics signal) (replicate samples): 8.82E+06 and 8.15E+06 and 8.77E+06
L-tryptophan level (metabolomics signal) (replicate samples): 1.85E+06 and 1.63E+06 and 1.27E+06
L-tyrosine level (metabolomics signal) (replicate samples): 2.13E+07 and 2.30E+07 and 1.69E+07
L-valine level (metabolomics signal) (replicate samples): 1.59E+08 and 1.62E+08 and 1.47E+08
dCMP level (metabolomics signal) (replicate samples): 1.62E+04 and 1.66E+04 and 1.35E+04
dTMP level (metabolomics signal) (replicate samples): 1.10E+06 and 1.20E+06 and 9.63E+05
glycine level (metabolomics signal) (replicate samples): 1.51E+06 and 1.66E+06 and 1.67E+06
N-Acyl-D-aspartate (C06380) metabolite signal [1]: 6.16E+04 and 5.50E+04 and 5.26E+04
Poly-gamma-D-glutamate (C05723) metabolite signal [1]: 4.45E+07 and 4.25E+07 and 4.46E+07
D-Ribitol 5-phosphate (C01068) metabolite signal [2]: 1.15E+04 and 2.30E+04 and 2.25E+04
D-glucono-1,5-lactone (C00198) metabolite signal [2]: 2.58E+05 and 2.64E+05 and 3.28E+05
L-Noradrenaline (C00547) metabolite signal [2]: 2.02E+04 and 2.76E+04 and 1.70E+04
Oxalosuccinate (C05379) metabolite signal [2]: 8.49E+04 and 8.94E+04 and 8.00E+04
Pyridoxamine (C00534) metabolite signal [2]: 9.67E+03 and 8.58E+03 and 9.61E+03
Thioredoxin disulfide (C00343) metabolite signal [2]: 2.29E+04 and 2.69E+04 and 2.77E+04
1-4-beta-D-Xylan (metabolite signal) [3]: 1.64E+05 and 1.40E+05 and 1.93E+05
2-Hydroxyglutarate/Citramalate (C02630) metabolite signal [3]: 7.84E+04 and 5.75E+04 and 5.66E+04
5-6-Dihydrothymine (C00906) metabolite signal [3]: 2.80E+05 and 2.87E+05 and 2.28E+05
5-10-Methenyltetrahydrofolate (metabolite signal) [3]: 1.54E+05 and 1.37E+05 and 1.05E+05
5-Hydroxyisourate (C11821) metabolite signal [3]: 4.81E+06 and 4.49E+06 and 3.27E+06
5-L-Glutamyl-taurine (metabolite signal) [3]: 1.49E+05 and 1.28E+05 and 1.35E+05
5-Oxoproline (metabolite signal) [3]: 8.83E+05 and 1.09E+06 and 7.57E+05
(S)(+)-Allantoin (C02350) metabolite signal [3]: 7.40E+03 and 8.26E+03 and 9.04E+03
Allantoate (C00499) metabolite signal [3]: 5.78E+05 and 5.92E+05 and 8.52E+05
Ascorbate (metabolite signal) [3]: 7.64E+04 and 9.21E+04 and 9.25E+04
CMP-N-acetylneuraminate (metabolite signal) [3]: 2.55E+04 and 6.91E+03 and 6.08E+03
Carnosine (metabolite signal) [3]: 1.46E+05 and 1.52E+05 and 1.15E+05
Citrate (C00158) metabolite signal [3]: 2.76E+04 and 1.91E+04 and 1.57E+04
Creatine (metabolite signal) [3]: 1.37E+08 and 1.42E+08 and 1.27E+08
Creatinine (metabolite signal) [3]: 2.18E+06 and 2.32E+06 and 1.85E+06
Cys-Gly (metabolite signal) [3]: 7.81E+05 and 5.57E+05 and 7.70E+05
D-Glucosamine (metabolite signal) [3]: 3.33E+05 and 2.53E+05 and 2.71E+05
D-Glucose (C00031) metabolite signal [3]: 3.99E+06 and 4.57E+06 and 4.90E+06
D-Ribose (C00121) metabolite signal [3]: 1.11E+05 and 8.97E+04 and 8.43E+04
Dehydroascorbate (metabolite signal) [3]: 3.57E+04 and 4.39E+04 and 4.65E+04
Dihydrofolate (metabolite signal) [3]: 1.44E+06 and 1.74E+06 and 1.87E+06
Dimethylglycine (metabolite signal) [3]: 6.87E+05 and 6.86E+05 and 5.98E+05
Diphosphate (C00013) metabolite signal [3]: 2.84E+04 and 3.52E+04 and 3.86E+04
Fumarate (C00122) metabolite signal [3]: 9.00E+04 and 7.84E+04 and 7.19E+04
Glutathione (C00051) metabolite signal [3]: 4.59E+07 and 3.87E+07 and 4.33E+07
Glutathione disulfide (metabolite signal) [3]: 3.00E+05 and 9.38E+04 and 7.81E+04
Hypoxanthine (C00262) metabolite signal [3]: 7.14E+03 and 5.93E+03 and 0.00E+00
IMP (C00130) metabolite signal [3]: 4.51E+04 and 3.74E+04 and 4.61E+04
Inosine (C00294) metabolite signal [3]: 6.84E+04 and 6.73E+04 and 4.20E+04
L-Citrulline (metabolite signal) [3]: 2.71E+06 and 3.04E+06 and 2.48E+06
L-Homoserine (metabolite signal) [3]: 2.62E+05 and 3.31E+05 and 2.39E+05
Lactate (C01432) metabolite signal [3]: 1.75E+07 and 2.07E+07 and 1.43E+07
Malate (C00149) metabolite signal [3]: 1.61E+05 and 9.39E+04 and 7.61E+04
Mannitol (C00392) metabolite signal [3]: 1.83E+05 and 1.22E+05 and 1.51E+05
N-Acetylneuraminate (metabolite signal) [3]: 1.66E+04 and 1.46E+04 and 8.13E+03
N-Glycoloyl-neuraminate (metabolite signal) [3]: 7.64E+04 and 8.68E+04 and 1.14E+05
NAD+ (C00003) metabolite signal [3]: 5.29E+04 and 5.95E+04 and 9.85E+04
Nicotinamide (C00153) metabolite signal [3]: 2.02E+07 and 2.16E+07 and 1.82E+07
Ornithine (metabolite signal) [3]: 1.75E+06 and 1.63E+06 and 1.64E+06
Oxaloacetate (C00036) metabolite signal [3]: 3.72E+04 and 4.43E+04 and 3.47E+04
Phosphoserine (metabolite signal) [3]: 2.32E+04 and 2.57E+04 and 1.04E+04
Putrescine (metabolite signal) [3]: 4.24E+04 and 2.70E+04 and 3.11E+04
Pyridoxal (C00250) metabolite signal [3]: 4.26E+04 and 5.24E+04 and 7.64E+04
Pyruvate (C00022) metabolite signal [3]: 2.17E+06 (2×) and 1.35E+06
S-Glutathionyl-L-cysteine (metabolite signal) [3]: 2.24E+05 and 8.00E+04 and 6.92E+04
Sedoheptulose 1-phosphate (C06222) metabolite signal [3]: 2.39E+04 and 1.32E+04 and 9.55E+03
Spermidine (metabolite signal) [3]: 6.66E+06 and 5.53E+06 and 5.68E+06
Spermine (metabolite signal) [3]: 8.48E+06 and 7.61E+06 and 6.89E+06
Succinate (C00042) metabolite signal [3]: 3.87E+04 and 5.97E+04 and 7.05E+04
Thymidine (C00214) metabolite signal [3]: 1.24E+04 and 9.43E+03 and 3.23E+03
UDP (C00015) metabolite signal [3]: 8.83E+04 and 9.94E+04 and 8.18E+04
UDP-N-acetyl-D-glucosamine (metabolite signal) [3]: 8.06E+03 and 2.61E+03 and 5.41E+03
UDP-glucose (C00029) metabolite signal [3]: 9.76E+03 and 1.91E+03 and 5.75E+03
Urate (C00366) metabolite signal [3]: 3.58E+04 and 2.84E+04 and 2.03E+04
Xanthine (C00385) metabolite signal [3]: 7.82E+04 and 7.20E+04 and 8.31E+04
alpha-D-Glucosamine 1-phosphate (metabolite signal) [3]: 9.63E+05 and 8.22E+05 and 5.48E+05
alpha-D-Ribose 1-phosphate (C00620) metabolite signal [3]: 4.34E+04 and 2.92E+04 and 1.97E+04
gamma-Glutamyl-gamma-aminobutyrate (metabolite signal) [3]: 5.87E+04 and 5.26E+04 and 3.36E+04
gamma-L-Glutamyl-D-alanine (metabolite signal) [3]: 4.70E+04 and 4.49E+04 and 2.74E+04
gamma-L-Glutamyl-L-cysteine (metabolite signal) [3]: 4.20E+04 and 3.03E+04 and 3.96E+04
